According to the NIST ThermoML archive (doi:10.1016/j.jct.2004.12.014):

What was measured:
[1] = xn = mol fraction of the nth substance listed; conditions: 318.15 K, 101 kPa, Liquid
[2] = excess molar enthalpy (molar enthalpy of mixing); xn = mol fraction of the nth substance listed; conditions: 318.15 K, 101 kPa, Liquid

CCCCCOC(=O)CC [pentyl propanoate] + CCCCCCCCCCCCCCCCC
Conditions | excess molar enthalpy [kcal/mol] | excess molar volume [m3/mol]
[1], x1 = 0.1083 | – | 2.44e-07
[1], x1 = 0.2045 | – | 4.6e-07
[1], x1 = 0.2891 | – | 6.18e-07
[1], x1 = 0.3649 | – | 6.95e-07
[1], x1 = 0.4391 | – | 7.63e-07
[1], x1 = 0.5053 | – | 8.03e-07
[1], x1 = 0.5658 | – | 7.98e-07
[1], x1 = 0.6233 | – | 7.82e-07
[1], x1 = 0.6778 | – | 7.45e-07
[1], x1 = 0.7277 | – | 6.88e-07
[1], x1 = 0.7752 | – | 6.07e-07
[1], x1 = 0.8185 | – | 5.23e-07
[1], x1 = 0.8587 | – | 4.3e-07
[1], x1 = 0.8969 | – | 3.33e-07
[1], x1 = 0.9324 | – | 2.44e-07
[1], x1 = 0.9677 | – | 1.14e-07
[2], x1 = 0.1196 | 0.103 | –
[2], x1 = 0.2114 | 0.166 | –
[2], x1 = 0.3026 | 0.217 | –
[2], x1 = 0.3904 | 0.251 | –
[2], x1 = 0.469 | 0.269 | –
[2], x1 = 0.5373 | 0.273 | –
[2], x1 = 0.5951 | 0.267 | –
[2], x1 = 0.6196 | 0.26 | –
[2], x1 = 0.6625 | 0.247 | –
[2], x1 = 0.7073 | 0.228 | –
[2], x1 = 0.7545 | 0.203 | –
[2], x1 = 0.8044 | 0.177 | –
[2], x1 = 0.8552 | 0.143 | –
[2], x1 = 0.9052 | 0.101 | –
[2], x1 = 0.9542 | 0.0541 | –

CCCOC(=O)CC [propyl propanoate] + CCCCCCC
Conditions | excess molar enthalpy [kcal/mol] | excess molar volume [m3/mol]
[1], x1 = 0.0283 | – | 9e-08
[1], x1 = 0.066 | – | 2.02e-07
[1], x1 = 0.1305 | – | 3.13e-07
[1], x1 = 0.1912 | – | 4.11e-07
[1], x1 = 0.2529 | – | 4.97e-07
[1], x1 = 0.3157 | – | 5.6e-07
[1], x1 = 0.3768 | – | 5.86e-07
[1], x1 = 0.437 | – | 6.03e-07
[1], x1 = 0.4973 | – | 6.01e-07
[1], x1 = 0.5557 | – | 5.81e-07
[1], x1 = 0.6132 | – | 5.43e-07
[1], x1 = 0.6703 | – | 4.91e-07
[1], x1 = 0.7248 | – | 4.24e-07
[1], x1 = 0.7801 | – | 3.67e-07
[1], x1 = 0.8355 | – | 2.94e-07
[1], x1 = 0.8887 | – | 2.07e-07
[1], x1 = 0.9444 | – | 1.24e-07
[2], x1 = 0.0639 | 0.0623 | –
[2], x1 = 0.1325 | 0.109 | –
[2], x1 = 0.2009 | 0.149 | –
[2], x1 = 0.273 | 0.179 | –
[2], x1 = 0.338 | 0.198 | –
[2], x1 = 0.3985 | 0.208 | –
[2], x1 = 0.4549 | 0.215 | –
[2], x1 = 0.5052 | 0.218 | –
[2], x1 = 0.5147 | 0.218 | –
[2], x1 = 0.5577 | 0.214 | –
[2], x1 = 0.6066 | 0.207 | –
[2], x1 = 0.6615 | 0.194 | –
[2], x1 = 0.7197 | 0.173 | –
[2], x1 = 0.7781 | 0.147 | –
[2], x1 = 0.8381 | 0.115 | –
[2], x1 = 0.8975 | 0.0783 | –
[2], x1 = 0.9534 | 0.0399 | –

CCCOC(=O)CC [propyl propanoate] + CCCCCCCCC
Conditions | excess molar enthalpy [kcal/mol] | excess molar volume [m3/mol]
[1], x1 = 0.0358 | – | 1.43e-07
[1], x1 = 0.0804 | – | 2.79e-07
[1], x1 = 0.1547 | – | 4.77e-07
[1], x1 = 0.2247 | – | 6.11e-07
[1], x1 = 0.2939 | – | 7.16e-07
[1], x1 = 0.3601 | – | 7.97e-07
[1], x1 = 0.4243 | – | 8.28e-07
[1], x1 = 0.4879 | – | 8.32e-07
[1], x1 = 0.5463 | – | 8.3e-07
[1], x1 = 0.6022 | – | 7.94e-07
[1], x1 = 0.6569 | – | 7.54e-07
[1], x1 = 0.7113 | – | 6.79e-07
[1], x1 = 0.7635 | – | 6.03e-07
[1], x1 = 0.8139 | – | 4.89e-07
[1], x1 = 0.8623 | – | 4.1e-07
[1], x1 = 0.9092 | – | 3.02e-07
[1], x1 = 0.9537 | – | 1.55e-07
[2], x1 = 0.0729 | 0.0736 | –
[2], x1 = 0.1505 | 0.13 | –
[2], x1 = 0.2274 | 0.179 | –
[2], x1 = 0.3035 | 0.216 | –
[2], x1 = 0.3733 | 0.239 | –
[2], x1 = 0.4372 | 0.25 | –
[2], x1 = 0.4858 | 0.252 | –
[2], x1 = 0.5248 | 0.252 | –
[2], x1 = 0.5688 | 0.248 | –
[2], x1 = 0.6152 | 0.239 | –
[2], x1 = 0.6667 | 0.223 | –
[2], x1 = 0.7215 | 0.198 | –
[2], x1 = 0.7776 | 0.169 | –
[2], x1 = 0.8356 | 0.135 | –
[2], x1 = 0.8948 | 0.0929 | –
[2], x1 = 0.951 | 0.0476 | –

CCCCCCCCCCCCC [tridecane] + CCC(=O)OC
Conditions | excess molar enthalpy [kcal/mol] | excess molar volume [m3/mol]
[1], x2 = 0.0687 | – | 3.33e-07
[1], x2 = 0.1431 | – | 6.43e-07
[1], x2 = 0.2538 | – | 1.057e-06
[1], x2 = 0.3537 | – | 1.323e-06
[1], x2 = 0.4366 | – | 1.462e-06
[1], x2 = 0.5144 | – | 1.543e-06
[1], x2 = 0.5811 | – | 1.548e-06
[1], x2 = 0.6387 | – | 1.514e-06
[1], x2 = 0.6932 | – | 1.429e-06
[1], x2 = 0.7403 | – | 1.32e-06
[1], x2 = 0.7836 | – | 1.217e-06
[1], x2 = 0.8229 | – | 1.075e-06
[1], x2 = 0.8583 | – | 9.26e-07
[1], x2 = 0.8914 | – | 7.83e-07
[1], x2 = 0.9212 | – | 6.29e-07
[1], x2 = 0.9596 | – | 4.05e-07
[1], x2 = 0.9748 | – | 2.5e-07
[2], x2 = 0.1102 | 0.152 | –
[2], x2 = 0.2079 | 0.264 | –
[2], x2 = 0.298 | 0.349 | –
[2], x2 = 0.3751 | 0.407 | –
[2], x2 = 0.4404 | 0.44 | –
[2], x2 = 0.4912 | 0.457 | –
[2], x2 = 0.5388 | 0.465 | –
[2], x2 = 0.5843 | 0.466 | –
[2], x2 = 0.624 | 0.459 | –
[2], x2 = 0.6309 | 0.456 | –
[2], x2 = 0.6687 | 0.44 | –
[2], x2 = 0.7093 | 0.414 | –
[2], x2 = 0.7493 | 0.382 | –
[2], x2 = 0.7925 | 0.336 | –
[2], x2 = 0.8368 | 0.283 | –
[2], x2 = 0.8813 | 0.224 | –
[2], x2 = 0.9269 | 0.152 | –
[2], x2 = 0.9664 | 0.0759 | –

CCCCCCCCCCCCC [tridecane] + CCCOC(=O)CC
Conditions | excess molar enthalpy [kcal/mol] | excess molar volume [m3/mol]
[1], x2 = 0.1068 | – | 3.54e-07
[1], x2 = 0.2003 | – | 6.1e-07
[1], x2 = 0.2831 | – | 7.8e-07
[1], x2 = 0.3626 | – | 8.99e-07
[1], x2 = 0.4343 | – | 9.83e-07
[1], x2 = 0.4988 | – | 1.001e-06
[1], x2 = 0.5633 | – | 1.013e-06
[1], x2 = 0.6197 | – | 9.68e-07
[1], x2 = 0.6738 | – | 9.29e-07
[1], x2 = 0.7241 | – | 8.44e-07
[1], x2 = 0.7705 | – | 7.66e-07
[1], x2 = 0.8135 | – | 6.6e-07
[1], x2 = 0.8558 | – | 5.36e-07
[1], x2 = 0.8941 | – | 4.18e-07
[1], x2 = 0.9306 | – | 2.67e-07
[1], x2 = 0.9641 | – | 1.43e-07
[2], x2 = 0.0771 | 0.0824 | –
[2], x2 = 0.1623 | 0.154 | –
[2], x2 = 0.248 | 0.217 | –
[2], x2 = 0.3288 | 0.264 | –
[2], x2 = 0.4032 | 0.294 | –
[2], x2 = 0.471 | 0.31 | –
[2], x2 = 0.5295 | 0.315 | –
[2], x2 = 0.5719 | 0.311 | –
[2], x2 = 0.5818 | 0.308 | –
[2], x2 = 0.6224 | 0.298 | –
[2], x2 = 0.6662 | 0.283 | –
[2], x2 = 0.7127 | 0.261 | –
[2], x2 = 0.7593 | 0.232 | –
[2], x2 = 0.8089 | 0.199 | –
[2], x2 = 0.8585 | 0.161 | –
[2], x2 = 0.9084 | 0.114 | –
[2], x2 = 0.9562 | 0.0607 | –
